According to PMC7059793, “Novel Chemical Scaffolds to Inhibit the Neutral Amino Acid Transporter B^0AT1 (SLC6A19), a Potential Target to Treat Metabolic Diseases” (Frontiers in Pharmacology, 2020):
Read-outs that look alike come from different tables or passages of the source.

How the values were obtained:
B^0AT1 [1] = target: T1, B^0AT1 (Homo sapiens, UniProt Q695T7); assay: Radioactive flux assay (radiolabelled leucine/isoleucine uptake) in CHO-BC cells; format: cell-based; details: 150 μM [14C]leucine or [14C]isoleucine, 6 min, 37°C
T1 construct: expressed in transfected cells
T1 sequence (Q695T7 1-634): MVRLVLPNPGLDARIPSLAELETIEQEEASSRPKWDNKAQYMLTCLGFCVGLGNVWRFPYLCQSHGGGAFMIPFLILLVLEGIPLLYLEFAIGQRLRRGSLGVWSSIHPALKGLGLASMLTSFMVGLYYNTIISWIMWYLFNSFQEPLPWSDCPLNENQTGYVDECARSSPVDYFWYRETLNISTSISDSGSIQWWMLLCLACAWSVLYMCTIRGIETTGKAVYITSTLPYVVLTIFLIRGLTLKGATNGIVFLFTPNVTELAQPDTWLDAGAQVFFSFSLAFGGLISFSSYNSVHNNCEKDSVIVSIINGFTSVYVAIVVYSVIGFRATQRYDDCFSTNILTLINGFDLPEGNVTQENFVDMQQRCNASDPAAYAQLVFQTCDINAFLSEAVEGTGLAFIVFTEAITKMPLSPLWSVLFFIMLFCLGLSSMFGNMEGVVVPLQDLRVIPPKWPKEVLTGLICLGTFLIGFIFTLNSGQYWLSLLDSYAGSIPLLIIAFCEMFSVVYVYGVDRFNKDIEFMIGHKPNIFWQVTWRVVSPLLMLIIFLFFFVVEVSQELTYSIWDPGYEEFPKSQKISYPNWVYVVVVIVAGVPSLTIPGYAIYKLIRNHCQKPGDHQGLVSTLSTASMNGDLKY
T1 sequence (Q9HBJ8 15-222 partner): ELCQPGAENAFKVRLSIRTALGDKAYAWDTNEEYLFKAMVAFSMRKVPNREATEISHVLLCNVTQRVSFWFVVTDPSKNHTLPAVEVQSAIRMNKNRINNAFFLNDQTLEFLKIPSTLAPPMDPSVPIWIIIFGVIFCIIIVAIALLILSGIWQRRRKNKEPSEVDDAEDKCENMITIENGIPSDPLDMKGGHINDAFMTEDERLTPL
Procedure: CHO-BC cells with passage numbers from 3 to 10 were used in radio-labelled uptake assays. Before the assay, the cells were seeded out in 35 mm dishes (Corning) and maintained for 48–72 h until reaching 80–90% confluence. To initiate transport, the culture medium was removed and the cells washed three times with HBSS + G. Subsequently, cells were incubated with HBSS + G, radiolabelled substrates (150 μM L-[U-^14C]leucine or 150 μM L-[U-^14C]isoleucine) and inhibitors as indicated in the figures or table in a 37°C water bath for 6 min. To terminate transport, cells were washed three times with ice-cold HBSS pH 7.5. For measuring sodium-independent uptake, NaCl in Hank’s buffer was replaced by NMDG-Cl. Cells were then harvested by homogenizing with 500 µl of 0.1 M HCl. An aliquot of 400 µl was used for scintillation counting and the remainder for protein quantification. To investigate inhibition of ASCT2, uptake of 100 μM [^14C]glutamine was measured in 143B cells in the absence and presence of inhibitor (at 10 μM and 50 μM). To measure inhibition of LAT1, uptake of [^14C]leucine was measured in HBSS + G in which NaCl was replaced by NMDG-Cl in 143B cells in the absence and presence of inhibitor (at 10 μM and 50 μM).
(§1) Data are shown as mean ± S.D., transport activities indicated as Na^+-dependent net uptake, were calculated by subtracting the uptake activity in the absence of Na^+ from the total uptake rate. The fluorescent signals measured in the FLIPR assay were normalized to baseline readings before the addition of substrates. Data are presented as percentage of baseline at each time point. IC50 was calculated using the equation: y=ymax(1−[x]/[x]+IC50) .

B^0AT1 [2] = target: T1, B^0AT1; assay: Membrane potential detecting FLIPR assay in CHO-BC cells; format: cell-based; details: 30 min pre-incubation, leucine or isoleucine 1.5 mM
Procedure: CHO-B^0AT1-collectrin Cells (CHO-BC) were generated, cultured, and used as described recently ([Cheng et al., 2017]). Expression levels of B^0AT1 in CHO-BC cells decline over time. As a result, passages <10 were used for experiments. The cells were maintained in Ham’s F-12 glutamax media with 10% (v/v) fetal bovine serum (FBS, Heat inactivated, 10082147 Gibco), 1mM glutamine, 300μg/ml hygromycin B and 275 μg/ml geneticin.
Membrane depolarisation induced by amino acid transport was monitored using a FLIPR® kit (Molecular Devices, R8042 BLUE DYE). Before the assay, CHO-BC cells were seeded out at a density of 60,000 cells/well and maintained in a flat transparent bottom 96-well plate (Corning) overnight. After washing three times with Hank’s balanced salt solution (136.6 mM NaCl, 5.4 mM KCl, 0.44 mM KH2PO4, 2.7mM Na2HPO4, 1.26mM CaCl2, 0.5mM MgCl2, 0.4 mM MgSO4, 10mM HEPES, pH 7.5, supplemented with 5 mM glucose, abbreviated HBSS + G), cells in each well were incubated for 30 min at room temperature in 50 µl of HBSS pH 7.5 containing 5 mM glucose and compounds as indicated, together with 50 µl of dye-loading buffer provided with the kit. Subsequently, the fluorescence signal was detected every 10 s before and after the addition of leucine or isoleucine at a final concentration of 1.5 mM. Fluorescence was detected at room temperature using a PerkinElmer multimode Plate Reader, with an excitation wavelength of 530 nm and emission wavelength of 565 nm.
as §1

B^0AT1 [3] = target: T1, B^0AT1; details: reference not printed at the place; ref Danthi et al., 2019; cited from earlier work
B^0AT1 [4] = target: T2, B^0AT1 (Mus musculus, UniProt Q9D687); assay: Na+-dependent leucine uptake in inverted sections of mouse intestine; details: 50 μM inhibitor, 150 μM [14C]leucine
T2 construct: from tissue; host or cells: small intestine of C57/BL6J female mice, inverted 1 cm sections
Source text: For uptake assays with inverted sections of mouse small intestine, 5–7 months old C57/BL6J female mice were sacrificed by cervical dislocation (Animal ethics protocol A2016/41, Australian National University). The small intestine was removed and the intestinal lumen was rinsed with ice-cold 0.9% NaCl. Subsequently, the small intestine was inverted on a metal rod to expose the mucosa. The inverted intestine was then cut into 1 cm pieces and fitted onto enzyme spatulas, which were immersed in HBSS pH 7.5 supplemented with 1 mM glutamine and protease inhibitor (Roche Complete). After washing twice in modified HBSS pH 7.5 (containing 10% NaCl + 90% NMDG-Cl for Na^+-dependent uptake and 100% NMDG-Cl for Na^+-independent uptake, both buffers supplemented with 1 mM glutamine) to remove residual compounds, the segments were pre-incubated in the same buffer in the presence of 50 µM of transport inhibitor and protease inhibitors for 15 min. At the end of the pre-incubation, the segments were transferred for 30 s into uptake buffer at 37°C (HBSS pH 7.5 supplemented with 150 μM [^14C]leucine and 50 µM transport inhibitor). For Na^+-dependent uptake regular HBSS was used, for Na^+-independent uptake NaCl was replaced by NMDG-Cl. Subsequently, the segments were rinsed three times in ice-cold HBSS pH 7.5 and lysed in 400 µl of 10% SDS. After 2–3 h, the lysed tissues were analyzed by scintillation counting.
To test whether the novel B^0AT1 inhibitors block the transporter in a more physiological environment, we studied leucine uptake in inverted sections of mouse intestine ( Figure 6C ). We established previously that Na^+-dependent leucine uptake (blue bars) in this system is mediated by B^0AT1 ([Broer et al., 2011]). In addition leucine uptake has a Na^+-independent transport component (salmon coloured bars), which is most likely mediated by rbat/b^0,+AT. Because of variability between animals, all data were normalized to uninhibited controls from the same animal.

B^0AT1 [5] = details: rat brush-border B^0AT1 in proteoliposomes; ref Pochini et al., 2014; cited from earlier work

T2 sequence (Q9D687 whole entry): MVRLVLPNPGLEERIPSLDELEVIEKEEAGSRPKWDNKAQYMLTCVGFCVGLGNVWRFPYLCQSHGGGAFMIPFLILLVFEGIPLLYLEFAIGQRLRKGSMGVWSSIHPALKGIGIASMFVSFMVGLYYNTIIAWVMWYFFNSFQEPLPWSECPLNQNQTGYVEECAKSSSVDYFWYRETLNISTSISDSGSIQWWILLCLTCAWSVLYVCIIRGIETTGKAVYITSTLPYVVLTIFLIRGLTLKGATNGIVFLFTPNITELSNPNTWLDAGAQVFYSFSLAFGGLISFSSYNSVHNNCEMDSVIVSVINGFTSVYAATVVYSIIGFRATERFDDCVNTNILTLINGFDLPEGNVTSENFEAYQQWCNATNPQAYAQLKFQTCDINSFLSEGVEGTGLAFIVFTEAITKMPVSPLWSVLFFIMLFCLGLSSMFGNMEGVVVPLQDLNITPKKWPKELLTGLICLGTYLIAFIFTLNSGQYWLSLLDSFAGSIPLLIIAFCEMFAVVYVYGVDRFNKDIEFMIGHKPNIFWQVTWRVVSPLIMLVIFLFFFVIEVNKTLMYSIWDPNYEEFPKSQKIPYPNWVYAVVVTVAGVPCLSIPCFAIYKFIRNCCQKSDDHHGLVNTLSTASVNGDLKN
T2 sequence (Q8R0I0 18-805 partner): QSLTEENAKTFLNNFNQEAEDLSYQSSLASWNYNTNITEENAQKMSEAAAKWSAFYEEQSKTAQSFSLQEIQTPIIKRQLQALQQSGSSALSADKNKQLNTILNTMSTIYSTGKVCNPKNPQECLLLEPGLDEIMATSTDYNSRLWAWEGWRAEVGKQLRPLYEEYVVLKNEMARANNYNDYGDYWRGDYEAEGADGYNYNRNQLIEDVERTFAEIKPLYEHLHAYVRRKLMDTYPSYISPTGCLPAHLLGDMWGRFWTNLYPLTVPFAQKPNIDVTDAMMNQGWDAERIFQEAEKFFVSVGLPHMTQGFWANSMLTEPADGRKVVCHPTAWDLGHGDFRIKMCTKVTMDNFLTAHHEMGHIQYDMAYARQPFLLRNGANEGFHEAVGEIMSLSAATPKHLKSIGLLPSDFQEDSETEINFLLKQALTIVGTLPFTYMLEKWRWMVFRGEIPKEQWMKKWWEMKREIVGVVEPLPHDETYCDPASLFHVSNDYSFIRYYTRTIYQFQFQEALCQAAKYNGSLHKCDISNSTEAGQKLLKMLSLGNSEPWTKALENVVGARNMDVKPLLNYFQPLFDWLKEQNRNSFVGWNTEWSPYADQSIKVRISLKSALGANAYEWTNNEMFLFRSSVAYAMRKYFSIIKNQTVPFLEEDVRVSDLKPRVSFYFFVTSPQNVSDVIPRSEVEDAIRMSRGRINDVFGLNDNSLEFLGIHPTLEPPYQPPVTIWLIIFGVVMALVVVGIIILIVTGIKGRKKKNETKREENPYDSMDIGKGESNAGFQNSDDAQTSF

Row | IC50 (B^0AT1 [1]) | IC50 (B^0AT1 [2]) | Inhibition of Na+-dependent leucine uptake (B^0AT1) ex vivo (B^0AT1 [4]) | SMILES | IC50 (B^0AT1 [3]) | IC50 (B^0AT1 [5])
1 | 8 ± 4 µM | 31 ± 15 µM | – | COc1ccc(C(CCCN2CCCCC2)c2ccccc2)cc1 (stereo not shown) [Compound E-53] | – | –
2 | 16 ± 8 µM | 20 ± 1 µM | – | COc1ccc(C(CCCN2CCOCC2)c2ccc(C)cc2)cc1 (stereo not shown) [Compound E-62] | – | –
3 | 39 ± 10 µM | 32 ± 14 µM | – | COc1ccc(C(CCCN2CCCCC2)c2ccc(C)cc2)cc1 (stereo not shown) [Compound E-63] | – | –
4 | 19 ± 6 µM | 33 ± 9 µM | – | COc1ccc(C(CCCN2CCOCC2)c2ccc(F)cc2)cc1 (stereo not shown) [Compound E-68] | – | –
5 | 46 ± 7 µM | 94 ± 20 µM | – | COc1ccc(C(CCCN2CCCCC2)c2ccc(F)cc2)cc1 (stereo not shown) [Compound E-69] | – | –
6 | 25 ± 8 µM | 74 ± 19 µM | – | COc1ccc(C(CCCN2CCCCC2)c2ccc3c(c2)OCO3)cc1 (stereo not shown) [Compound E-90] | – | –

The remaining lines, values behind:

Row | SMILES | IC50 (B^0AT1 [1]) | IC50 (B^0AT1 [2]) | Inhibition of Na+-dependent leucine uptake (B^0AT1) ex vivo (B^0AT1 [4]) | IC50 (B^0AT1 [3]) | IC50 (B^0AT1 [5])
7 | CN1[C@@H]2CC[C@H]1C[C@@H](OC(c1ccccc1)c1ccccc1)C2 [Benztropin, benztropine, reference compound] | 71 ± 8 µM | 44 ± 9 µM | – | – | –
8 | CCNC(=O)/C=C/c1cccc(Br)c1 [Cinromide, cinromide, reference compound] | – | 0.5 ± 0.08 µM | limited capacity to inhibit B^0AT1 | 0.3 µM | –
9 | COc1ccc(C(CCCN2CCOCC2)c2ccccc2)cc1 (stereo not shown) [Compound E-47] | 17 ± 9 µM | 21 ± 6 µM | – | – | –
10 | Cc1ccc(C(CCCN2CCOCC2)c2ccc3c(c2)OCO3)cc1 (stereo not shown) [Compound E-84] | 19 ± 4 µM | 31 ± 3 µM | – | – | –
11 | Cc1ccc(C(CCCN2CCCCC2)c2ccc3c(c2)OCO3)cc1 (stereo not shown) [Compound E-85] | 8 ± 2 µM | 36 ± 11 µM | – | – | –
12 | COc1ccc(C(CCCN2CCOCC2)c2ccc3c(c2)OCO3)cc1 (stereo not shown) [Compound E-89] | 34 ± 7 µM | 39 ± 4 µM | – | – | –
13 | c1ccc(CCCN2CCCCC2Cc2ccccc2)cc1 (stereo not shown) [NSC22789, reference compound] | 78 ± 16 µM | 90 ± 21 µM | – | – | –
14 | CS(=O)(=O)Nc1ccc([N+](=O)[O-])cc1Oc1ccccc1 [Nimesulide] | – | – | – | – | 23 µM
